Experimental findings from patent US20180325861A1, “NOVEL CANNABINOID FORMULATIONS” (priority 2015, published 2018) are described below.

Molecules are shown by their SMILES. Where two headings read alike, the source gives them in different places. Marks after values point to notes of the source that are not given here.

How the values of series [1] were obtained:
Formulations prepared by mixing the dry solid powder of the tested compound in either the blank formulation to form 5% w/v or in a formulation already containing 5% w/w CBD. Particle size was determined by particle size analyzer.

Series [2] in a line: Combinatory PNL formulations with cyclosporine (2.2.1). Format: physicochemical. The following applies: for dissolution in the cyclosporine formulation: 50 and 100 mg added to cyclosporine solution, visual, after refrigeration. How it is done:
The mixtures were examined visually for complete dissolution, precipitation after 24 hours at refrigeration and for particle size when added to water.
The particle size of the formulations, when added to water, was above 100 nm, compared to the original formulation, as determined by transmission UV at 550 nm turbidity test.
Extensive testing and adjustments were required to design a formulation that could fit two or more agents in a single formulation.

Series [3] in a line: Preliminary screening for maximum CBD loading. Format: physicochemical.

For the molecule `CC(C)Cc1ccc(C(C)C(=O)O)cc1` (centres unmarked) [Ibuprofen], in series [1] (3 hr after dissolution), the PDI is recorded as 0.398, the Particle size was found to be 74.28 nm and the Visual entry is on record as “clear”. In series [1] (after 13 days in 4 C), the PDI stood at 0.367, the Particle size was determined as 67.86 nm and the Visual result is recorded as “clear”.
As to `C=C(C)[C@@H]1CCC(C)=C[C@H]1c1c(O)cc(CCCCC)cc1O` [CBD, Cannabidiol], the “appearance in the cyclosporine solution” value in series [2] (CBD at 50 mg) is on record as “clear solution”. Further, the “maximum CBD load allowing formation of clear solution” value in series [3] is listed as 10-12.5%.
Take `C[C@@H]1[C@H](O)[C@@H](C)/C=C/C=C/C=C/C=C/C=C/C=C/C=C/[C@H](O[C@@H]2O[C@H](C)[C@@H](O)[C@H](N)[C@@H]2O)C[C@@H]2O[C@](O)(C[C@@H](O)C[C@@H](O)[C@H](O)CC[C@@H](O)C[C@@H](O)CC(=O)O[C@H]1C)C[C@H](O)[C@H]2C(=O)O` [Amphitericin B]: the “dissolution in the cyclosporine formulation” value in series [2] is reported as “did not fully dissolve”.
For `CC(C)CCC[C@@H](C)[C@H]1CC[C@H]2[C@@H]3CC=C4C[C@@H](O)CC[C@]4(C)[C@H]3CC[C@]12C` [Cholesterol], in series [1] (3 hr after dissolution), the PDI is on record as 0.487**, the Particle size turned out to be 96.43 nm and the Visual result was “turbid”. Also, in series [1] (after 13 days in 4 C), the PDI is on record as 0.516, the Particle size was determined as 86.94 nm and the Visual result is given as “turbid”.
In the case of `O=C(N[C@H](CO)[C@H](O)c1ccc([N+](=O)[O-])cc1)C(Cl)Cl` [Chloramphenicol], in series [1] (3 hr after dissolution), the PDI is 0.118, the Particle size was found to be 30.03 nm and the Visual entry is “clear”. In series [1] (after 13 days in 4 C), the PDI came to 0.172, the Particle size was 29.64 nm and the Visual result is listed as “clear”.
For the molecule `CCOC(=O)c1ccc(N)cc1` [Benzocaine], in series [1] (3 hr after dissolution), the PDI is on record as 0.449, the Particle size turned out to be 62.22 nm and the Visual entry is given as “clear”. Besides, in series [1] (after 13 days in 4 C), the PDI stood at 0.479, the Particle size is 65.82 nm and the Visual entry is listed as “clear”.
On to `CC(=O)O[C@H]1C(=O)[C@@]2(C)[C@H]([C@H](OC(=O)c3ccccc3)[C@]3(O)C[C@H](OC(=O)[C@H](O)[C@@H](NC(=O)c4ccccc4)c4ccccc4)C(C)=C1C3(C)C)[C@]1(OC(C)=O)CO[C@@H]1C[C@@H]2O` [Paclitxel], for which the “Solubility in PNL with 5% CBD” value in series [1] was “~”. In addition, in series [1] (3 hr after dissolution), the Particle size is roughly 50 nm and the Visual result was “clear”. In series [1] (after 13 days in 4 C), the Visual entry is “precipitate”. The “dissolution in the cyclosporine formulation” value in series [2] is “did not fully dissolve”.
